# According to patent publication US20220154192A1, “SYSTEM AND METHOD FOR LIGHT-REGULATED OLIGOMERIZATION AND PHASE SEPARATION OF FOLDED DOMAINS AND RNA GRANULE-ASSOCIATED PROTEIN DOMAINS FOR DRUG- BASED SCREENING APPLICATIONS” (The Trustees of Princeton University, priority 2019, published 2022):
# “Also recorded” adds a separate entry of the source. *1 amine or outer side, *2 acyl side, *3 side chain or, on linkers, in order; H or OH if unused. Where a SMILES comes first, the peptide text is derived from it. Bridges are numbered along the chain shown (N, C = ends). Roman numbers before positions name the chains, in order. [ ]: non-standard residue; d: D form. Actinocin(9to1) = Cc1c2oc3c(C)ccc(C(=O)[*:1])c3nc-2c(C(=O)[*:2])c(N)c1=O; NMeV = CN[C@H](C(=O)O)C(C)C; Sar = CNCC(=O)O
# B1: CAPRIN1: NTF2-interacting RNA-binding stress granule protein (protein, UniProt Q14444 2-709, looked up)
# Caprin-1: PSATSHSGSGSKSSGPPPPSGSSGSEAAAGAGAAAPASQHPATGTGAVQTEAMKQILGVIDKKLRNLEKKKGKLDDYQERMNKGERLNQDQLDAVSKYQEVTNNLEFAKELQRSFMALSQDIQKTIKKTARREQLMREEAEQKRLKTVLELQYVLDKLGDDEVRTDLKQGLNGVPILSEEELSLLDEFYKLVDPERDMSLRLNEQYEHASIHLWDLLEGKEKPVCGTTYKVLKEIVERVFQSNYFDSTHNHQNGLCEEEEAASAPAVEDQVPEAEPEPAEEYTEQSEVESTEYVNRQFMAETQFTSGEKEQVDEWTVETVEVVNSLQQQPQAASPSVPEPHSLTPVAQADPLVRRQRVQDLMAQMQGPYNFIQDSMLDFENQTLDPAIVSAQPMNPTQNMDMPQLVCPPVHSESRLAQPNQVPVQPEATQVPLVSSTSEGYTASQPLYQPSHATEQRPQKEPIDQIQATISLNTDQTTASSSLPAASQPQVFQAGTSKPLHSSGINVNAAPFQSMQTVFNMNAPVPPVNEPETLKQQNQYQASYNQSFSSQPHQVEQTELQQEQLQTVVGTYHGSPDQSHQVTGNHQQPPQQNTGFPRSNQPYYNSRGVSRGGSRGARGLMNGYRGPANGFRGGYDGYRPSFSNTPNSGYTQSQFSAPRDYSGYQRDGYQQNFKRGSGQSGPRGAPRGRGGPPRPNRGMPQMNTQQVN
# Legend:
# [1] = system: opto-SGs (optogenetic stress granules) of G3BP ΔNTF2 Corelets in U2OS cells; assay: G3BP ΔNTF2 Corelet opto-SG intracellular phase diagram; assay type: cell-based, human
# Text: To quantitatively interrogate the relationship between RBD valence and the threshold protein complex concentration for stress granule formation, the Corelet system described previously (the cores are comprised of a 24-mer ferritin complex coated by iLID molecules, which serves as an oligomerization platform mediated by blue light-stimulated sspB-iLID interactions, where the sspB-iLID is fused to the IDR regions and RBDs of G3BP) can be utilized to quantitatively map valence and concentration-dependent phase diagrams.
# Pre-activation and post-activation images of G3BP KO cells stably expressing the indicated fusion proteins were captured with the mCherry (560) channel only to visualize the sspB component without triggering light-induced dimerization with the iLID-mGFP tagged Ferritin core. Cells were activated with a 488-laser using 1% laser power to cause dimerization of iLID and sspB. Activation of cells was achieved by imaging the mCherry and mGFP channels simultaneously using a 6-second frame interval for an area of 120×120 μm2 (1024×1024 pixels) at Nyquist zoom.
# (§1) Cell treatment with arsenite to dissociate polysomes Cells were treated by adding sodium arsenite to cell media at a concentration of 400 μM, which is in excess of saturating concentrations for polysome disassembly (Kedersha et al., 2016). […] Inhibition of polysome disassembly by pre-treating with cycloheximide was added to a final concentration of 100 μg/mL (G3BP KO cells expressing indicated fluorescent fusion proteins). Following 30-minutes of incubation, arsenite was added at a concentration of 400 μM. 1-hour later, cells were assessed for formation of stress granules (GFP-G3BP rescue) or activation cycles were performed (Corelets).
# Actinomycin D dissolved in DMSO was used to treat G3BP KO cells expressing indicated Corelets at a concentration of 5 μg/mL. Images were taken 12-18 hours after actinomycin D treatment, a time interval during which nucleoli were no longer apparent by bright field observation and the vast majority of mRNA was expected to be degraded. Final concentration of DMSO was 0.5%. For Actinomycin D plus arsenite experiments, arsenite was added at a concentration of 400 μM˜12 hours following actinomycin D treatment and cells were imaged 1-2 hours subsequently. […] Time point was chosen to maximize the time since treatment (i.e. to reduce RNA cells by as much as possible) without extensive lethality from the drug.
# In order to determine precise phase threshold boundaries for intracellular phase diagrams, analyzed cells must feature high variability with respect to sspB-mCherry and iLID-mGFP stoichiometries to sample sufficient core concentrations and valencies. In order to achieve a broad concentration range for both components, G3BP KO cells were transduced in 96-well plates (Cellvis) using an arrayed lentivirus approach. In this protocol, rows varied from 2 to 60 μL iLID-GFP-Fe lentivirus; columns, 2 to 60 μL mCherry-sspB-open reading frame (ORF)/ORF-mCherry-sspB lentivirus. G3BP KO cells were plated directly into the arrayed lentivirus to attain ˜25% confluency upon subsequent attachment to the plastic substrate.
# [2] = system: CAPRIN1 RGG Corelets; assay: CAPRIN1 RGG (RBD) Corelet phase separation after RNA depletion; assay type: cell-based, human; details: RNA depletion by Actinomycin D
# Text: High valence G3BP RBD nodes (but not dimeric bridges) are sufficient to induce stress granule formation following polysome disassembly, but it is unclear whether this is a unique feature of G3BP or common to RNA-binding nodes that interact with G3BP NTF2. We reasoned that if such NTF2-associated RBPs contribute essential, additive RNA-binding valence to the multi-protein complex, synthetic high valence nodes connected to individual RBDs would nucleate opto-SGs in isolation (i.e. mimic G3BP RBD Corelets). To test this, the RBDs of CAPRIN1 and UBAP2L were oligomerized utilizing the Corelet system, and mapped phase diagrams in both non-treated and arsenite-exposed cells. […] Further, condensate protein composition, P-body attachment, and relative phase thresholds are not determined by the type or number of RNA-binding motifs. […]
# In order to determine precise phase threshold boundaries for intracellular phase diagrams, analyzed cells must feature high variability with respect to sspB-mCherry and iLID-mGFP stoichiometries to sample sufficient core concentrations and valencies. […] In this protocol, rows varied from 2 to 60 μL iLID-GFP-Fe lentivirus; columns, 2 to 60 μL mCherry-sspB-open reading frame (ORF)/ORF-mCherry-sspB lentivirus. […]
# [3] = system: G3BP KO cells; assay: Lethality of drug treatment in cultured cells (qualitative observation); details: arsenite 400 μM; Actinomycin D 5 μg/mL
# Method: as §1
# Actinomycin D dissolved in DMSO was used to treat G3BP KO cells expressing indicated Corelets at a concentration of 5 μg/mL. Images were taken 12-18 hours after actinomycin D treatment, a time interval during which nucleoli were no longer apparent by bright field observation and the vast majority of mRNA was expected to be degraded. Final concentration of DMSO was 0.5%. For Actinomycin D plus arsenite experiments, arsenite was added at a concentration of 400 μM˜12 hours following actinomycin D treatment and cells were imaged 1-2 hours subsequently.
# [4] = system: stress granules; assay: Arsenite-induced stress granule formation time course; assay type: cell-based, human; details: arsenite 400 μM
# Method: as §1
# [5] = system: stress granule formation in G3BP KO U2OS cells; assay: G3BP rescue / rescue competition of stress granule formation in G3BP KO U2OS cells; assay type: cell-based, human; details: for rescue of stress granule formation in G3BP KO cells: expressed protein in G3BP KO cells
# Method: For G3BP rescue competition experiments, an identical arrayed lentivirus approach was used as described in Phase diagram data collection (i.e. 2-60 μL G3BPmCherry and 2-60 μL mGFP-ORF, arrayed 4-wells by 4-wells for 16-wells total of a 96-well plate). G3BP KO cells were plated into lentivirus then combined and passaged 72-hours later.
# Live cell confocal microscopy was performed on Day 5 post-transduction. For each condition (GFP-tagged protein of interest), 4 separate experiments (each experiment=1-well/arsenite treatment) were performed on three separate days with numerous technical replicates (fields of view). Live confocal imaging was performed 1-2 hours following arsenite treatment. mCherry and mGFP concentrations were determined similarly as for phase diagrams and manual scoring of stress granule absence or presence was performed. Similar protocols were used to assess rescue in the absence of competition.
# The concentration of each cell was determined via manual image segmentation as previously described and absence or presence of stress granules was annotated. To determine a boundary from the data, a support vector machine (SVM) trained using the concentrations of the two components as explanatory variables and the categorical stress granule state as a response variable by applying the fitcsvm( ) function in the MATLAB Statistics and Machine Learning package using the default solver. Briefly, a support vector machine constructs a linear decision surface based on boundary points (‘support vectors’), with the assumption that the data is linearly separable. […]
# For each experiment, the concentration of the protein of interest was determined for each cell, and the presence of stress granules was categorized. […] Specifically, the probability density was calculated by binning the concentration distribution using a square root number rule. Within each bin, the probability of having stress granules was calculated as the number of cells with stress granules over the total number of cells in that bin. […]
molecule,measurement,setting,value
"Cc1c2oc3c(C)ccc(C(=O)N[C@@H]4C(=O)N[C@H](C(C)C)C(=O)N5CCC[C@H]5C(=O)N(C)CC(=O)N(C)[C@@H](C(C)C)C(=O)O[C@@H]4C)c3nc-2c(C(=O)N[C@@H]2C(=O)N[C@H](C(C)C)C(=O)N3CCC[C@H]3C(=O)N(C)CC(=O)N(C)[C@@H](C(C)C)C(=O)O[C@@H]2C)c(N)c1=O [Actinomycin D] (I: T[dV]P[Sar][NMeV] / II: T[dV]P[Sar][NMeV]; ester I:1-I:C, II:1-II:C; linker I:N-II:N via Actinocin(9to1))",formation of opto-SGs,"[1]; Actinomycin D 5 μg/mL, 12-18 hours, FIG. 15D",prevents the formation of opto-SGs; also recorded: disrupts the formation of SGs
same,phase separation of CAPRIN1 RGG Corelets,[2],abrogates phase separation
same,time after treatment at which cells began to die / treatment was lethal,[3],30 to 36 h
"O=[As]O [arsenite, sodium arsenite]",valence required to drive condensation,"[1]; at 0.15 μM Core, arsenite 400 μM, non-stressed cells need valence ~24",~8
same,time by which SG number/size peaked,[4],≤ 45 min
same,time after treatment at which cells began to die / treatment was lethal,[3],~6 h
C[C@@H]1C[C@@H]([C@H](O)CC2CC(=O)NC(=O)C2)C(=O)[C@@H](C)C1 [cycloheximide],calculated best-fit phase threshold,"[1]; arsenite and cycloheximide, FIG. 15C vs FIG. 15A",almost identical to that of nontreated cells
same,arsenite-driven shift in the opto-SG phase diagram,"[1]; pre-treatment with cycloheximide 100 μg/mL 30 min, then arsenite 400 μM",negated
G3BP F33W: G3BP variant unable to bind USP10 or CAPRIN1,rescue of stress granule formation in G3BP KO cells,[5],rescues SG formation
"G3BP: stress granule nucleating protein, fluorescently tagged, expressed in G3BP KO cells",EC50,"[5]; G3BP KO U2OS cells, arsenite, read-out: G3BP concentration for rescue of stress granule formation",620 nM
B1,rescue of stress granule formation in G3BP KO cells,[5],does not rescue
